Assays:
breast T47D cells = assay: Cell proliferation (growth rate, crystal violet) of breast T47D cells with AS-7 by itself; format: cell-based, human; settings: 10 μM AS-7, vehicle doubling time 1.4 days
Method: (§1) To examine the effect of AS-7 on the growth of several different cell lines, AS-7 at 10 μM was added to the culture medium the day after seeding the cells. The following cell lines were used to determine the effect of AS-7 on the rate of proliferation: HeLa, melanoma A2620, ovarian A2780, and breast T47D. All cell line were grown in culture medium (RPMI 1640 for the breast cancer cells and Dulbecco's modified Eagle's medium for the other cell lines) containing 10% heat inactivated fetal bovine serum without antibiotics (penicillin and streptomycin). […] The doubling times in HeLa, melanoma, ovarian and breast cancer derived cells were 0.9, 2.5, 1.0, and 1.4 days, respectively. AS-7 increased the doubling times of the HeLa, melanoma, ovarian, and breast cancer derived cells by 1.3, 1.3, 1.6, and 3.1 fold, respectively (FIGS. 11 through 14).

HeLa cells [1] = assay: MTS cell viability of HeLa cells treated with anticancer drug with or without AS-7 (48 hours); format: cell-based, human; settings: HeLa cells; 10 μM AS-7
159C cells = assay: MTS cell viability of breast cancer 159C cells, bortezomib with or without AS-7; format: cell-based; settings: 10 μM AS-7, data not shown
Method: Breast cancer derived cell lines, T47D and 159C, were seeded in a 96 well tissue culture plate (2000 cells per well). The significance of these two lines of breast cancer derived cell lines is that the T47D cells positive for three markers used to optimize the chemotherapeutic treatment, namely HER2 receptor, estrogen receptor, and progesterone receptor. By contrast to the T47D cells, the 159C cells are negative for the three markers. The compounds, 10 μM AS-7 and a range of bortezomib (BioVision, Inc., Milpitas, Calif.) concentrations were added the following day. After 48 hours, MTS was added and absorbance was measured at 490 nm.

HeLa cells [2] = assay: Glucose utilization and acid production in HeLa cell culture medium; format: cell-based, human; settings: 10 μM AS-7, after 5 days
Method: FIG. 19 illustrates that AS-7 increases glucose utilization and acid production in HeLa cells. HeLa cells were cultured (100 mm diameter plates) in medium containing 4.5 mg/ml glucose at pH 7.4. After 5 days medium glucose was determined by standard methodology and the pH of the medium was measured with a pH meter.
Because it was repeatedly observed that AS-7 by itself decreased the pH of the culture medium, it was hypothesized that AS-7 might stimulate glucose utilization and the production of lactic acid, which is a major acidic product of glucose metabolism. HeLa cells were cultured in 100 millimeter diameter tissue culture plates in order to monitor the pH and the glucose concentration of the culture medium. Glucose was quantified with a glucose test strip and meter, as commonly used to monitor fluctuations in blood glucose. A pH meter was used to record the pH of the medium. Control cultures (“Control”) were treated with the appropriate amount of the vehicle used dissolve AS-7. Treated cultures (“AS-7”) incubated with 10 μM AS-7.

[3] = tested on: Multiple myeloma cells (RPMI 8226); assay: MTS cell viability of multiple myeloma cells treated with bortezomib with or without AS-7; format: cell-based
Method: Multiple myeloma cells (RPMI 8226) were seeded in a 96 well tissue culture plate (2000 cells per well). The compounds, 10 μM AS-7 and bortezomib at the concentrations indicated in […], were added the following day. AS-7 was prepared as described in Example I above. After 48 hours, MTS was added and absorbance was measured at 490 nm. […] Values in FIG. 2 are relative controls that contained only the vehicle in which the drugs were dissolved. Vehicle had no effect on cell viability. Error bars in FIG. 2 are not visible if they are smaller than the symbols.

Melanoma A2620 cells [4] = assay: Cell proliferation (growth rate, crystal violet) of melanoma A2620 cells with AS-7 by itself; format: cell-based, human; settings: 10 μM AS-7, vehicle doubling time 2.5 days
Method: as §1

ovarian A2780 cells [5] = assay: Crystal violet cell viability of ovarian A2780 cells, bortezomib with or without AS-7 (72 hours); format: cell-based, human; settings: A2780 cells; 10 μM AS-7
Method: Ovarian tumor-derived cell lines, IGROV and A2780, were seeded in a 96 well tissue culture plate (2000 cells per well). The compounds, 10 μM AS-7 and bortezomib (BioVision, Inc., Milpitas, Calif.) at the concentrations indicated in the figures, were added the following day. AS-7 was prepared as described in Example I above. […] Values are relative to cells that with the vehicle in which the drugs were dissolved. Vehicle had no effect on cell viability. Error bars in FIG. 6 and FIG. 7 are not shown if they are smaller than the symbols.

Melanoma A2620 cells [6] = assay: Crystal violet cell viability of melanoma A2620 cells, bortezomib with or without AS-7 (72 hours); format: cell-based, human; settings: 10 μM AS-7
Method: Melanoma A2620 cells were seeded in a 96 well tissue culture plate (2000 cells per well). The compounds, 10 μM AS-7 and bortezomib at the concentrations indicated in FIG. 8 were added the following day. […] Values are relative to controls that contained only the vehicle in which the drugs were dissolved. Vehicle had no effect on cell viability.

ovarian A2780 cells [7] = assay: Cell proliferation (growth rate, crystal violet) of ovarian A2780 cells with AS-7 by itself; format: cell-based, human; settings: 10 μM AS-7, vehicle doubling time 1.0 days
Method: as §1

[8] = Solubility in aqueous solutions; format: physicochemical
Text: The ubiquitin-proteasome sensitizer compound and/or the ubiquitin-proteasome inhibitor compounds utilized in the method provided herein may also be modified by appending appropriate functionalities to enhance selective biological properties. Such modifications are known in the art and include those which increase biological penetration into a given biological system (e.g., blood, lymphatic system, central nervous system), increase oral availability, increase solubility to allow administration by injection, alter metabolism and alter rate of excretion. […] In some embodiments, AS-7 or an active derivative thereof can be dissolved at 50 mM AS-7 in dimethylsulfoxide containing 5% Cremaphor® EL detergent (Sigma Aldrich) and diluted approximately one thousand fold in a physiologic salt solution such as saline containing albumin in the range of the albumin concentration of blood. Alternatively, nanoparticles containing AS-7 or an active derivative thereof are administered to the subject. Nanoparticles can be made by mixing human albumin at a 3-4% solution in a salt solution of the desired pH and ionic strength, subjecting the solution to elevated pressure and releasing the solution via a small jet. Nanoparticles of optimal size can be purified by differential centrifugation. […]

N#Cc1cccc(C(C(=O)NCC(c2ccccc2)c2ccccc2)N(CCc2c[nH]cn2)C(=O)c2ccccc2C(=O)c2ccccc2)c1 (stereo not drawn) [AS-7]
increase of doubling time (breast T47D cells): 3.1 fold | increase in potency of the cytotoxic action of carfilzomib by AS-7 (HeLa cells [1]): approximately 3.5 fold | potentiation of the cytotoxic action of bortezomib (159C cells): markedly potentiated | glucose concentration of the culture medium relative to control (HeLa cells [2]): significantly decreased | pH of the culture medium relative to control (HeLa cells [2]): significantly decreased | potentiation of the cytotoxic action of bortezomib (loss of multiple myeloma cell viability) ([3]; 10 μM AS-7, 48 hours, MTS): markedly potentiates | increased potency of the cytotoxic action of bortezomib upon the addition of AS-7 ([3]; FIG. 2 as printed (multiple myeloma cells)): approximately 3.5 fold | increase of doubling time (Melanoma A2620 cells [4]): 1.3 fold | increase in potency of the cytotoxic action of bortezomib by AS-7 (ovarian A2780 cells [5]): approximately 3.1 fold | increase in potency of the cytotoxic action of bortezomib by AS-7 (Melanoma A2620 cells [6]): approximately three | increase of doubling time (ovarian A2780 cells [7]): 1.6 fold | solubility in aqueous solutions [8]: limited solubility in aqueous solutions
